Experimental findings from patent US9464049B2, “Indole-carboxamides” (Hoffmann-La Roche Inc., priority 2013, dated 2016) are described below.

Broadly, the melting point is the temperature, or range, at which the solid turns liquid.

Data set [1] concerns human embryonic stem cell derived neural stem cells (NSCs). Kind of data set: Neural stem cell proliferation assay (neurogenesis assay, ATP levels by CellTiterGlo). As to conditions: Homo sapiens, Neural stem cell, 96 h; compound concentration at which 150% activity of control (100%) is reached; NSC proliferation by ATP (CellTiterGlo) after 4 days incubation; dose response 8 μM to 8 nM. The format is cell-based. As for the experimental part:
Neural Stem Cell Proliferation Assay
Neurogenic properties of small molecules are determined based on the proliferation of human embryonic stem cell derived neural stem cells (NSCs) which were derived via a dual smad inhibition as previously described (Chambers, S. M., et al., Highly efficient neural conversion of human ES and iPS cells by dual inhibition of SMAD signaling, Nature biotechnology, 2009. 27(3): p. 275-80.)
Compounds respond is measured by the increase in cells based on ATP levels (Promega:CellTiterGlo®) after an incubation period of 4 days.
NSCs are thawed and expanded over 3 passages. On the 14th day, NSCs are seeded in Polyornithin/Laminin coated 384 well plates at a cell density of 21,000 cells/cm^2 in a media volume of 38 μl.
4 hours after cell seeding, compound solutions are added at a volume of 2 μl. Stock solutions of the compounds (water, 5% DMSO) are diluted to obtain a dose response (11 points, dilution factor is 2), ranging from 8 μM to 8 nM. Controls are run to consistently determine the neurogenic properties of the cells: • Negative (neutral) control is cell culture Media (final DMSO concentration: 0.25%). • Positive controls are: • 1. cell culture Media+100 ng/ml FGF2 (final DMSO concentration: 0.1%) • 2. cell culture Media+20 ng/ml EGF (final DMSO concentration: 0.1%) • 3. cell culture Media+100 ng/ml Wnt3a (final DMSO concentration: 0.1%)
After 4 days incubation at 37° C., 5% CO2, the amount of ATP per well is quantified. The ATP concentration is proportional to the cell number. ATP is quantified by using the Promega CellTiterGlo® kit. The CellTiterGlo® reagents contain a cell lysis buffer, a thermo stable luciferase (UltraGlo™ recombinant luciferase), magnesium and luciferin. Luciferin reacts with ATP producing oxyluciferin, AMP and light. The luminescence signal is proportional to the ATP content.
The value of negative (neutral) control is determined for each assay plate by taking the average of 16 negative control wells. The neurogenic compound response is calculated for each compound as (compound/Negative Control)*100.
The values of EC150 from the dose response curve are determined for each test compound. The EC150 is the compound concentration at which 150% activity of control (100%) is reached.
Background: ATP-based viability assays read luminescence as a measure of living cells.

`Cc1c(C(N)=O)[nH]c2c(-c3ccc(Cl)c(F)c3)cc(Cl)cc12` [Example 31, 5-Chloro-7-(4-chloro-3-fluorophenyl)-3-methyl-1H-indole-2-carboxamide] came in with a melting point of 283 °C. In data set [1], this molecule had an EC (150% of control) of 0.43 µM.

On to `Cc1c(C(N)=O)n(C)c2c(-c3ccc(Cl)c(F)c3)cc(Cl)cc12` [Example 32, 5-Chloro-7-(4-chloro-3-fluorophenyl)-1,3-dimethylindole-2-carboxamide], for which the melting point was 192 °C. Further, the EC (150% of control) in data set [1] turned out to be 1.02 µM.

Molecule `N#Cc1cc(-c2ccc(F)cc2)c2[nH]c(C(N)=O)cc2c1` [Example 34, 5-Cyano-7-(4-fluorophenyl)-1H-indole-2-carboxamide] showed a melting point of 234 °C. In addition, the EC (150% of control) in data set [1] worked out at 0.057 µM.

`N#Cc1cc(-c2ccc(Cl)cc2)c2[nH]c(C(N)=O)cc2c1` [Example 35, 7-(4-Chlorophenyl)-5-cyano-1H-indole-2-carboxamide] returned a melting point of 267.5 °C. Also, the EC (150% of control) in data set [1] worked out at 0.021 µM.

Consider `N#Cc1cc(-c2ccc(C(F)(F)F)cc2)c2[nH]c(C(N)=O)cc2c1` [Example 36, 5-Cyano-7-[4-(trifluoromethyl)phenyl]-1H-indole-2-carboxamide], for which the melting point was found to be 277.5 °C. This molecule also displayed an EC (150% of control) in data set [1] of 0.1 µM.

`Cn1c(C(N)=O)cc2cc(C#N)cc(-c3ccc(C(F)(F)F)cc3)c21` [Example 37, 5-Cyano-1-methyl-7-[4-(trifluoromethyl)-phenyl]-indole-2-carboxamide] gave a melting point of 171 °C. The same molecule displayed an EC (150% of control) in data set [1] of 2.62 µM.

Turning to `Cn1c(C(N)=O)cc2cc(C#N)cc(-c3ccc(F)cc3)c21` [Example 38, 5-Cyano-7-(4-fluorophenyl)-1-methylindole-2-carboxamide], the melting point turned out to be 203.5 °C. This molecule also had an EC (150% of control) in data set [1] of 0.19 µM.

Molecule `Cn1c(C(N)=O)cc2cc(C#N)cc(-c3ccc(Cl)cc3)c21` [Example 39, 7-(4-Chlorophenyl)-5-cyano-1-methylindole-2-carboxamide] gave a melting point of 176 °C. For the same molecule, the EC (150% of control) in data set [1] is 0.18 µM.

With `Cn1c(C(N)=O)cc2cc(C#N)cc(-c3ccc(F)c(F)c3)c21` [Example 40, 5-Cyano-7-(3,4-difluorophenyl)-1-methylindole-2-carboxamide], the melting point was 184.5 °C. In data set [1], this molecule came in with an EC (150% of control) of 0.2 µM.

Turning to `N#Cc1cc(-c2ccc(F)cc2F)c2[nH]c(C(N)=O)cc2c1` [Example 41, 5-Cyano-7-(2,4-difluorophenyl)-1H-indole-2-carboxamide], the melting point is 289.5 °C. Also, the EC (150% of control) in data set [1] turned out to be 0.025 µM.

`N#Cc1cc(-c2ccc(Cl)cc2Cl)c2[nH]c(C(N)=O)cc2c1` [Example 42, 5-Cyano-7-(2,4-dichlorophenyl)-1H-indole-2-carboxamide] came in with a melting point of 276.5 °C. In data set [1], this molecule had an EC (150% of control) of 0.047 µM.

Consider `N#Cc1ccc(-c2cc(C#N)cc3cc(C(N)=O)[nH]c23)cc1` [Example 43, 5-Cyano-7-(4-cyanophenyl)-1H-indole-2-carboxamide], for which the melting point amounted to 299 °C. The EC (150% of control) in data set [1] was determined as 0.2 µM.

In the case of `N#Cc1cc(-c2ccc(OC(F)(F)F)cc2)c2[nH]c(C(N)=O)cc2c1` [Example 44, 5-Cyano-7-[4-(trifluoromethoxy)-phenyl]-1H-indole-2-carboxamide], the melting point came to 247 °C. Further, the EC (150% of control) in data set [1] came out at 0.17 µM.

In turn, `Cc1c(C(N)=O)[nH]c2c(-c3ccc(F)cc3)cc(F)cc12` [Example 45, 5-Fluoro-7-(4-fluorophenyl)-3-methyl-1H-indole-2-carboxamide] gave a melting point of 219 °C. The EC (150% of control) in data set [1] worked out at 0.068 µM.

For the molecule `Cc1c(C(N)=O)[nH]c2c(-c3ccc(Cl)cc3)cc(F)cc12` [Example 46, 7-(4-Chlorophenyl)-5-fluoro-3-methyl-1H-indole-2-carboxamide], the melting point came to 230 °C. In addition, in data set [1], the EC (150% of control) came to 0.066 µM.

Molecule `Cc1c(C(N)=O)[nH]c2c(-c3ccc(F)c(F)c3)cc(F)cc12` [Example 47, 7-(3,4-Difluorophenyl)-5-fluoro-3-methyl-1H-indole-2-carboxamide] came in with a melting point of 208 °C. The molecule also returned an EC (150% of control) in data set [1] of 0.052 µM.

As for `Cc1c(C(N)=O)[nH]c2c(-c3ccc(C(F)(F)F)cc3)cc(F)cc12` [Example 48, 5-Fluoro-3-methyl-7-[4-(trifluoromethyl)-phenyl]-1H-indole-2-carboxamide], the melting point came out at 200 °C. In data set [1], this molecule gave an EC (150% of control) of 0.11 µM.

In the case of `Cc1c(C(N)=O)n(C)c2c(-c3ccc(F)cc3)cc(F)cc12` [Example 49, 5-Fluoro-7-(4-fluorophenyl)-1,3-dimethylindole-2-carboxamide], the melting point is 202 °C. The EC (150% of control) in data set [1] came to 0.17 µM.

The molecule `Cc1c(C(N)=O)n(C)c2c(-c3ccc(Cl)cc3)cc(F)cc12` [Example 50, 7-(4-Chlorophenyl)-5-fluoro-1,3-dimethylindole-2-carboxamide] yielded a melting point of 210 °C. This molecule came in with an EC (150% of control) in data set [1] of 0.12 µM.

The molecule `Cc1c(C(N)=O)n(C)c2c(-c3ccc(C(F)(F)F)cc3)cc(F)cc12` [Example 51, 5-Fluoro-1,3-dimethyl-7-[4-(trifluoromethyl)-phenyl]-indole-2-carboxamide] registered a melting point of 222 °C. Moreover, in data set [1], the EC (150% of control) was 0.13 µM.

For the molecule `Cc1c(C(N)=O)n(C)c2c(-c3ccc(F)c(F)c3)cc(F)cc12` [Example 52, 7-(3,4-Difluorophenyl)-5-fluoro-1,3-dimethylindole-2-carboxamide], the melting point was determined as 186 °C. In addition, in data set [1], the EC (150% of control) amounted to 0.7 µM.

The molecule `Cc1c(C(N)=O)[nH]c2c(-c3ccc(C#N)cc3)cc(F)cc12` [Example 53, 7-(4-Cyanophenyl)-5-fluoro-3-methyl-1H-indole-2-carboxamide] yielded a melting point of 230 °C. In data set [1], this molecule registered an EC (150% of control) of 0.04 µM.

As to `Cc1c(C(N)=O)[nH]c2c(-c3ccc(OC(F)(F)F)cc3)cc(F)cc12` [Example 54, 5-Fluoro-3-methyl-7-[4-(trifluoromethoxy)phenyl]-1H-indole-2-carboxamide], the melting point is 108 °C. The EC (150% of control) in data set [1] came to 0.2 µM.

Take `Cc1c(C(N)=O)[nH]c2c(-c3ccc(F)cc3F)cc(F)cc12` [Example 55, 7-(2,4-Difluorophenyl)-5-fluoro-3-methyl-1H-indole-2-carboxamide]: the melting point was found to be 200 °C. The molecule also returned an EC (150% of control) in data set [1] of 0.026 µM.

Consider `Cc1c(C(N)=O)[nH]c2c(-c3ccc(Cl)cc3Cl)cc(F)cc12` [Example 56, 7-(2,4-Dichlorophenyl)-5-fluoro-3-methyl-1H-indole-2-carboxamide], for which the melting point is 198 °C. The molecule also registered an EC (150% of control) in data set [1] of 0.027 µM.

`N#Cc1cc(-c2ccc(Cl)cc2F)c2[nH]c(C(N)=O)cc2c1` [Example 57, 7-(4-Chloro-2-fluorophenyl)-5-cyano-1H-indole-2-carboxamide] returned a melting point of 286.5 °C. The EC (150% of control) in data set [1] amounted to 0.066 µM.

In turn, `Cn1c(C(N)=O)cc2cc(C#N)cc(-c3ccc(Cl)cc3F)c21` [Example 58, 7-(4-Chloro-2-fluorophenyl)-5-cyano-1-methylindole-2-carboxamide] showed a melting point of 192 °C. The EC (150% of control) in data set [1] stood at 1.67 µM.

Molecule `Cc1c(C(N)=O)n(C)c2c(-c3ccc(C#N)cc3)cc(F)cc12` [Example 59, 7-(4-Cyanophenyl)-5-fluoro-1,3-dimethylindole-2-carboxamide] yielded a melting point of 245 °C. The same molecule yielded an EC (150% of control) in data set [1] of 0.083 µM.

In the case of `Cc1c(C(N)=O)n(C)c2c(-c3ccc(OC(F)(F)F)cc3)cc(F)cc12` [Example 60, 5-Fluoro-1,3-dimethyl-7-[4-(trifluoromethoxy)phenyl]indole-2-carboxamide], the melting point amounted to 171 °C. In data set [1], this molecule yielded an EC (150% of control) of 0.22 µM.

For the molecule `Cc1c(C(N)=O)n(C)c2c(-c3ccc(Cl)cc3Cl)cc(F)cc12` [Example 61, 7-(2,4-Dichlorophenyl)-5-fluoro-1,3-dimethylindole-2-carboxamide], the melting point was found to be 169 °C. In addition, the EC (150% of control) in data set [1] turned out to be 0.21 µM.

On to `Cn1c(C(N)=O)cc2cc(C#N)cc(-c3ccc(F)cc3F)c21` [Example 62, 5-Cyano-7-(2,4-difluorophenyl)-1-methylindole-2-carboxamide], for which the melting point worked out at 206.5 °C. The molecule also showed an EC (150% of control) in data set [1] of 0.12 µM.
